Marks after values point to notes of the source that are not given here.
Key:
male Wistar rats [1] = test: In vivo anti-inflammation test of the fractionated products TSB-14A to TSB-14E (carrageenan hind paw edema); conditions: aspirin positive control, oral, three hours after carrageenan injection
Procedure: Briefly, male Wistar rats with a weight of around 160±5 g were randomly divided into four groups (n=5 for each group) including two experimental groups (i.e., TSB-9-W1-1 group and TSB-9-W1-2 group) and two control groups (i.e., a vehicle normal control group and an aspirin positive control group). After overnight fasting, the rats in the TSB-9-W1-1 and the TSB-9-W1-2 groups were orally administered with the formulation TSB-9-W1 at a dose of 10 mg/Kg and a dose of 30 mg/Kg, respectively, the rats in the vehicle normal control group were orally administered with 2% Tween 80 at a dosing volume of 10 mL/Kg, and the rats in the aspirin positive control group were orally administered with aspirin at a dose of 150 mg/Kg. One hour later, 0.1 mL of a 1% carrageenan suspension was intraplantarly injected into the right hind paws of rats in each group. Three hours after the intraplantar injection, the volumes of the left and right hind paws of each rat were measured using a plethysmometer (#7150, UGO Basile, Italy) including a water cell (a diameter of 25 mm; #7157, UGO Basile, Italy), and the hind paw edema volume was expressed as the difference between the measured volumes of the left and right hind paws. Inhibition rate (%) of hind paw edema in each group of rats was calculated using the following Equation (2): […]

male Wistar rats [2] = test: In vivo anti-inflammation test of formulation TSB-9-W1 (carrageenan hind paw edema); conditions: aspirin oral 150 mg/Kg, three hours after carrageenan injection
Procedure: Briefly, male Wistar rats with a weight of around 160±5 g were randomly divided into four groups (n=5 for each group) including two experimental groups ([…]1-1 group and TSB-9-W1-2 group) and two control groups (i.e., a vehicle normal control group and an aspirin positive control group). […] Three hours after the intraplantar injection, the volumes of the left and right hind paws of each rat were measured using a plethysmometer (#7150, UGO Basile, Italy) including a water cell (a diameter of 25 mm; #7157, UGO Basile, Italy), and the hind paw edema volume was expressed as the difference between the measured volumes of the left and right hind paws. […] D=(E-F)/E×100 (2) wherein D=inhibition rate of hind paw edema, • E=the average value of the hind paw edema volumes in the vehicle normal control group of rats, and • F=the average value of the hind paw edema volumes in each group of rats.

male CD-1 (Crl.) mice [3] = test: In vivo analgesia test of formulation TSB-9-W (formalin, hind paw licking); conditions: morphine oral 30 mg/Kg
Procedure: The formulation TSB-9 was milled to obtain a formulation TSB-9-W having a particle size of around 10 μm, and an in vivo analgesia test of the formulation TSB-9-W was performed by the MDS Pharma Services.
Briefly, male CD-1 (Crl.) mice were randomly divided into three groups (n=5 for each group) including an experimental group (i.e., TSB-9-W group) and two control groups (i.e., a vehicle normal control group and a morphine positive control group). The mice in the TSB-9-W group were orally administered with the formulation TSB-9-W at a dose of 100 mg/Kg, the mice in the vehicle normal control group were orally administered with 2% Tween 80 at a dosing volume of 10 mL/Kg, and the mice in the morphine positive control group were orally administered with morphine at a dose of 30 mg/Kg. One hour later, 0.02 mL of a 2% formalin solution was subplantarly injected into the hind paws of mice in each group, and the hind paw licking times for each mouse were counted at the time intervals of 0-5 minutes and 15-30 minutes after formalin injection. Inhibition rate (%) of hind paw licking in each group of mice was calculated using the following Equation (1):
wherein A=inhibition rate of hind paw licking (%), • B=the average value of the hind paw licking times in the vehicle normal control group of mice, and • C=the average value of the hind paw licking times in each group of mice.

male CD-1 (Crl.) mice [4] = test: In vivo analgesia test of the fractionated products TSB-14A to TSB-14E (formalin, hind paw licking); design: concentration or dose not given beside the values; conditions: morphine positive control, oral
[5] = 0-5 minutes after formalin injection

## CC(=O)Oc1ccccc1C(=O)O [Aspirin, aspirin]
Male Wistar rats [1]
  Inhibition rate of hind paw edema (%): 37* %
Male Wistar rats [2]
  Inhibition rate of hind paw edema (%): 40* %

## CN1CC[C@]23c4c5ccc(O)c4O[C@H]2[C@@H](O)C=C[C@H]3[C@H]1C5 [Morphine, morphine]
Male CD-1 (Crl.) mice [3]; [5]
  Inhibition rate of hind paw licking (%): 100* %
Male CD-1 (Crl.) mice [3]; 15-30 minutes after formalin injection
  Inhibition rate of hind paw licking (%): 100* %
Male CD-1 (Crl.) mice [4]; [5]
  Inhibition rate of hind paw licking (%): 62* %
Male CD-1 (Crl.) mice [4]; 10-15 minutes after formalin injection
  Inhibition rate of hind paw licking (%): 89* %
Male CD-1 (Crl.) mice [4]; 15-20 minutes after formalin injection
  Inhibition rate of hind paw licking (%): 81* %
Male CD-1 (Crl.) mice [4]; 20-25 minutes after formalin injection
  Inhibition rate of hind paw licking (%): 68* %
Male CD-1 (Crl.) mice [4]; 25-30 minutes after formalin injection
  Inhibition rate of hind paw licking (%): 0%

Reference: patent US20110305784A1, “Fractionated products obtained from gamboge resin, and medical uses of the same” (priority 2010, published 2011)
